Patent US10004701B2, “Methods and compositions for treating infection” (UNIVERSITY OF ROCHESTER, priority 2012, dated 2018)
Structures can show the parent of a compound that is named as a salt. Where two headings read alike, the source gives them in different places.

Legend:
Test in all cases: AK assay 384-well format, Prestwick library screening
[1] = tested on: K. pneumoniae; assay type: cell-based, Klebsiella pneumoniae; details: 50 μM final drug concentration; for fold induction at 50 µM: Klebsiella pneumoniae, 3 h
[2] = tested on: P. aeruginosa; assay type: cell-based, Pseudomonas aeruginosa; details: 50 μM final drug concentration; for fold induction at 50 µM: Pseudomonas aeruginosa, 3 h
[3] = tested on: E. cloacae; assay type: cell-based, Enterobacter cloacae; details: 50 μM final drug concentration; for fold induction at 50 µM: Enterobacter cloacae, 3 h
[4] = tested on: E. coli; assay type: cell-based, Escherichia coli; details: 50 μM final drug concentration; for fold induction at 50 µM: Escherichia coli, 3 h
[5] = tested on: A. baumannii strain 98-37-09; assay type: cell-based, Acinetobacter baumannii; details: 50 μM final drug concentration; for fold induction at 50 µM: Acinetobacter baumannii, 983709, 3 h
[6] = tested on: S. aureus strain USA300-0114; assay type: cell-based, Staphylococcus aureus; details: 50 μM final drug concentration; for fold induction at 50 µM: Staphylococcus aureus, USA300, 3 h
[7] = tested on: E. faecium; assay type: cell-based, Enterococcus faecium; details: 50 μM final drug concentration; for fold induction at 50 µM: Enterococcus faecium, 3 h
[8] = planktonic K. pneumoniae, 384-well, cutoff for positive-scoring molecules 3-fold increase, read-out: AK-based Prestwick Library Screening Results: K. pneumoniae (increase in extracellular AK activity)
[9] = planktonic P. aeruginosa, 384-well, cutoff for positive-scoring molecules 3-fold increase, read-out: AK-based Prestwick Library Screening Results: P. aeruginosa (increase in extracellular AK activity)
[10] = planktonic E. cloacae, 384-well, cutoff for positive-scoring molecules 3-fold increase, read-out: AK-based Prestwick Library Screening Results: E. cloacae (increase in extracellular AK activity)
[11] = planktonic E. coli, 384-well, cutoff for positive-scoring molecules 3-fold increase, read-out: AK-based Prestwick Library Screening Results: E. coli (increase in extracellular AK activity)
[12] = planktonic A. baumannii, 384-well, cutoff for positive-scoring molecules 3-fold increase, read-out: AK-based Prestwick Library Screening Results: A. baumannii (increase in extracellular AK activity)
[13] = planktonic S. aureus, 384-well, cutoff for positive-scoring molecules 3-fold increase, read-out: AK-based Prestwick Library Screening Results: S. aureus (increase in extracellular AK activity)
[14] = planktonic E. faecium, 384-well, cutoff for positive-scoring molecules 3-fold increase, read-out: AK-based Prestwick Library Screening Results: E. faecium (increase in extracellular AK activity)
[15] = cutoff for positive-scoring molecules 3-fold increase, read-out: AK-based Prestwick Library Screening Results, K. pneumoniae (fold increase in extracellular AK activity)
[16] = cutoff for positive-scoring molecules 3-fold increase, read-out: AK-based Prestwick Library Screening Results, P. aeruginosa (fold increase in extracellular AK activity)
[17] = cutoff for positive-scoring molecules 3-fold increase, read-out: AK-based Prestwick Library Screening Results, E. cloacae (fold increase in extracellular AK activity)
[18] = cutoff for positive-scoring molecules 3-fold increase, read-out: AK-based Prestwick Library Screening Results, E. coli (fold increase in extracellular AK activity)
[19] = cutoff for positive-scoring molecules 3-fold increase, read-out: AK-based Prestwick Library Screening Results, A. baumannii (fold increase in extracellular AK activity)
[20] = cutoff for positive-scoring molecules 3-fold increase, read-out: AK-based Prestwick Library Screening Results, S. aureus (fold increase in extracellular AK activity)
[21] = cutoff for positive-scoring molecules 3-fold increase, read-out: AK-based Prestwick Library Screening Results, E. faecium (fold increase in extracellular AK activity)

Compound: O=C(NCNC(=O)NC1C(=O)NC(=O)N1CO)NC1C(=O)NC(=O)N1CO (stereo not shown) [Imidurea]
- fold induction at 50 µM ([1]; planktonic K. pneumoniae, […], read-out: AK-based Prestwick library screening result, K. pneumoniae (fold increase in extracellular AK activity)): 0.7
- fold induction at 50 µM ([2]; planktonic P. aeruginosa, […], read-out: AK-based Prestwick library screening result, P. aeruginosa (fold increase in extracellular AK activity)): 0.8
- fold induction at 50 µM ([3]; planktonic E. cloacae, […], read-out: AK-based Prestwick library screening result, E. cloacae (fold increase in extracellular AK activity)): 1.2
- fold induction at 50 µM ([4]; planktonic E. coli, […], read-out: AK-based Prestwick library screening result, E. coli (fold increase in extracellular AK activity)): 0.9
- fold induction at 50 µM ([5]; planktonic A. baumannii, […], read-out: AK-based Prestwick library screening result, A. baumannii (fold increase in extracellular AK activity)): 0.8
- fold induction at 50 µM ([6]; planktonic S. aureus, […], read-out: AK-based Prestwick library screening result, S. aureus (fold increase in extracellular AK activity)): 0.7
- fold induction at 50 µM ([7]; planktonic E. faecium, […], read-out: AK-based Prestwick library screening result, E. faecium (fold increase in extracellular AK activity)): 0.9

Compound: O=C1CN(/N=C/c2ccc(-c3ccc([N+](=O)[O-])cc3)o2)C(O)=N1 [Dantrolene sodium salt]
- fold induction at 50 µM [1, 8]: 0.9
- fold induction at 50 µM [2, 9]: 1.2
- fold induction at 50 µM [3, 10]: 1.5
- fold induction at 50 µM [4, 11]: 1
- fold induction at 50 µM [5, 12]: 1.1
- fold induction at 50 µM [6, 13]: 1.1
- fold induction at 50 µM [7, 14]: 1

Compound: CN(CCCCCCCCCCN(C)C(=O)Oc1cccc([N+](C)(C)C)c1)C(=O)Oc1cccc([N+](C)(C)C)c1 [Demecarium bromide]
- fold induction at 50 µM ([1]; planktonic, […], read-out: AK-based Prestwick Library Screening Results, K. pneumoniae (fold increase in extracellular AK activity)): 1
- fold induction at 50 µM ([2]; planktonic, […], read-out: AK-based Prestwick Library Screening Results, P. aeruginosa (fold increase in extracellular AK activity)): 1.3
- fold induction at 50 µM ([3]; planktonic, […], read-out: AK-based Prestwick Library Screening Results, E. cloacae (fold increase in extracellular AK activity)): 2
- fold induction at 50 µM ([4]; planktonic, […], read-out: AK-based Prestwick Library Screening Results, E. coli (fold increase in extracellular AK activity)): 1.4
- fold induction at 50 µM ([5]; planktonic, […], read-out: AK-based Prestwick Library Screening Results, A. baumannii (fold increase in extracellular AK activity)): 1.1
- fold induction at 50 µM ([6]; planktonic, […], read-out: AK-based Prestwick Library Screening Results, S. aureus (fold increase in extracellular AK activity)): 0.8
- fold induction at 50 µM ([7]; planktonic, […], read-out: AK-based Prestwick Library Screening Results, E. faecium (fold increase in extracellular AK activity)): 1

Compound: CC(C(=O)O)c1ccc(N2Cc3ccccc3C2=O)cc1 (stereo not shown) [Indoprofen]
- fold induction at 50 µM ([1]; planktonic, cutoff for positive-scoring molecules 3-fold increase, read-out: AK-based Prestwick Library Screening Results, K. pneumoniae (fold increase in extracellular AK activity)): 0.1
- fold induction at 50 µM ([2]; planktonic, cutoff for positive-scoring molecules 3-fold increase, read-out: AK-based Prestwick Library Screening Results, P. aeruginosa (fold increase in extracellular AK activity)): 0.2
- fold induction at 50 µM ([3]; planktonic, cutoff for positive-scoring molecules 3-fold increase, read-out: AK-based Prestwick Library Screening Results, E. cloacae (fold increase in extracellular AK activity)): 1.5
- fold induction at 50 µM ([4]; planktonic, cutoff for positive-scoring molecules 3-fold increase, read-out: AK-based Prestwick Library Screening Results, E. coli (fold increase in extracellular AK activity)): 0.2
- fold induction at 50 µM ([5]; planktonic, cutoff for positive-scoring molecules 3-fold increase, read-out: AK-based Prestwick Library Screening Results, A. baumannii (fold increase in extracellular AK activity)): 0.2
- fold induction at 50 µM ([6]; planktonic, cutoff for positive-scoring molecules 3-fold increase, read-out: AK-based Prestwick Library Screening Results, S. aureus (fold increase in extracellular AK activity)): 0.2
- fold induction at 50 µM ([7]; planktonic, cutoff for positive-scoring molecules 3-fold increase, read-out: AK-based Prestwick Library Screening Results, E. faecium (fold increase in extracellular AK activity)): 0.1

Compound: CC(=O)Nc1cc2ccccc2oc1=O [Compound 3-Acetamidocoumarin, 3-Acetamidocoumarin]
- fold induction at 50 µM [1, 15]: 0.4
- fold induction at 50 µM [2, 16]: 0.4
- fold induction at 50 µM [3, 17]: 0.4
- fold induction at 50 µM [4, 18]: 0.5
- fold induction at 50 µM [5, 19]: 0.4
- fold induction at 50 µM [6, 20]: 0.4
- fold induction at 50 µM [7, 21]: 0.8

Compound: CC(=O)[C@@]1(O)CC[C@H]2[C@@H]3C[C@H](C)C4=CC(=O)C=C[C@]4(C)[C@@]3(F)[C@@H](O)C[C@@]21C [Fluorometholone]
- fold induction at 50 µM [1, 15]: 1
- fold induction at 50 µM [2, 16]: 1.1
- fold induction at 50 µM [3, 17]: 1.7
- fold induction at 50 µM [4, 18]: 1.1
- fold induction at 50 µM [5, 19]: 1.3
- fold induction at 50 µM [6, 20]: 1.2
- fold induction at 50 µM [7, 21]: 1

Compound: CCCN(CCC)S(=O)(=O)c1ccc(C(=O)O)cc1 [Probenecid]
- fold induction at 50 µM ([1]; planktonic, cutoff for positive 3-fold increase, read-out: AK-based Prestwick Library Screening Results, K. pneumoniae (fold increase in extracellular AK activity)): 1.1
- fold induction at 50 µM ([2]; planktonic, cutoff for positive 3-fold increase, read-out: AK-based Prestwick Library Screening Results, P. aeruginosa (fold increase in extracellular AK activity)): 1.2
- fold induction at 50 µM ([3]; planktonic, cutoff for positive 3-fold increase, read-out: AK-based Prestwick Library Screening Results, E. cloacae (fold increase in extracellular AK activity)): 1.4
- fold induction at 50 µM ([4]; planktonic, cutoff for positive 3-fold increase, read-out: AK-based Prestwick Library Screening Results, E. coli (fold increase in extracellular AK activity)): 1.4
- fold induction at 50 µM ([5]; planktonic, cutoff for positive 3-fold increase, read-out: AK-based Prestwick Library Screening Results, A. baumannii (fold increase in extracellular AK activity)): 1.3
- fold induction at 50 µM ([6]; planktonic, cutoff for positive 3-fold increase, read-out: AK-based Prestwick Library Screening Results, S. aureus (fold increase in extracellular AK activity)): 1
- fold induction at 50 µM ([7]; planktonic, cutoff for positive 3-fold increase, read-out: AK-based Prestwick Library Screening Results, E. faecium (fold increase in extracellular AK activity)): 1

Compound: C[C@@H]1O[C@@H](O[C@H]2C[C@@H](O)[C@]3(CO)[C@H]4[C@H](O)C[C@]5(C)[C@@H](C6=CC(=O)OC6)CC[C@]5(O)[C@@H]4CC[C@]3(O)C2)[C@H](O)[C@H](O)[C@H]1O.O.O.O.O.O.O.O.O [Strophantine octahydrate]
- AK-based Prestwick Library Screening Results, K. pneumoniae (fold increase in extracellular AK activity) ([1]; planktonic, […]): 0.9
- AK-based Prestwick Library Screening Results, P. aeruginosa (fold increase in extracellular AK activity) ([2]; planktonic, […]): 1.1
- AK-based Prestwick Library Screening Results, E. cloacae (fold increase in extracellular AK activity) ([3]; planktonic, […]): 1.7
- AK-based Prestwick Library Screening Results, E. coli (fold increase in extracellular AK activity) ([4]; planktonic, […]): 1.2
- AK-based Prestwick Library Screening Results, A. baumannii (fold increase in extracellular AK activity) ([5]; planktonic, […]): 1.2
- AK-based Prestwick Library Screening Results, S. aureus (fold increase in extracellular AK activity) ([6]; planktonic, […]): 1.1
- AK-based Prestwick Library Screening Results, E. faecium (fold increase in extracellular AK activity) ([7]; planktonic, […]): 1.0

Compound: Lycorine hydrochloride
- AK-based Prestwick Library Screening Results, K. pneumoniae (fold increase in extracellular AK activity) ([1]; planktonic, […]): 0.8
- AK-based Prestwick Library Screening Results, P. aeruginosa (fold increase in extracellular AK activity) ([2]; planktonic, […]): 1.1
- AK-based Prestwick Library Screening Results, E. cloacae (fold increase in extracellular AK activity) ([3]; planktonic, […]): 1.5
- AK-based Prestwick Library Screening Results, E. coli (fold increase in extracellular AK activity) ([4]; planktonic, […]): 1.0
- AK-based Prestwick Library Screening Results, A. baumannii (fold increase in extracellular AK activity) ([5]; planktonic, […]): 1.0
- AK-based Prestwick Library Screening Results, S. aureus (fold increase in extracellular AK activity) ([6]; planktonic, […]): 1.4
- AK-based Prestwick Library Screening Results, E. faecium (fold increase in extracellular AK activity) ([7]; planktonic, […]): 1.0

Compound: Clc1ccc(CCC(Cn2ccnc2)Sc2c(Cl)cccc2Cl)cc1 (stereo not shown) [Butoconazole nitrate]
- fold induction at 50 µM [1, 8]: 0.7
- fold induction at 50 µM [2, 9]: 0.5
- fold induction at 50 µM [3, 10]: 0.5
- fold induction at 50 µM [4, 11]: 0.7
- fold induction at 50 µM [5, 12]: 2
- fold induction at 50 µM [6, 13]: 0.6
- fold induction at 50 µM [7, 14]: 3.3
